Values of other authors in paper PMC8198792, “Prediction of Anticancer Peptides with High Efficacy and Low Toxicity by Hybrid Model Based on 3D Structure of Peptides” (International Journal of Molecular Sciences, 2021).
Like-named read-outs stand apart in the source and are kept apart here.

Test system: cancer cell lines
Design: method as in 6 sources, ref CancerPPD [45] and SATPdb ||| ref CancerPPD/SATPdb ||| ref CancerPPD, SATPdb, Swissprot (PDB) ||| ref CancerPPD/SATPdb/Swissprot(PDB) ||| ref CancerPPD / SATPdb ||| ...
Settings: cited from earlier work
From the text: Supplement ijms-22-05630-s001.zip/ACPs(seguence).xlsx, sheet "D1" | column: Activity || Supplement ijms-22-05630-s001.zip/ACPs(seguence).xlsx, sheet "D2" | column: Activity || Supplement ijms-22-05630-s001.zip/ACPs(seguence).xlsx, sheet "D3" | column: Activity || (+ 2 further places)

[1] = ACPs dataset D5 (sheet "D5"), label 1 = ACP (positive set), 0 = non-ACP (negative set), ref CancerPPD [45] and SATPdb
[2] = ACPs dataset sheet D2, 1 = ACP (CancerPPD/SATPdb ID), 0 = non-ACP (Swissprot/PDB ID), ref CancerPPD, SATPdb, Swissprot (PDB)
[3] = ACPs dataset D1, 1 = ACP (positive), 0 = non-ACP (negative), label taken from databases, ref CancerPPD [45] and SATPdb
[4] = ACPs dataset D4 (sheet "D4"), label 1 = ACP (CancerPPD ID), 0 = non-ACP (non-anticancer AMP, SATPdb ID), ref CancerPPD [45] and SATPdb
[5] = ACPs dataset D3 (sheet "D3"), label 1 = ACP, 0 = non-ACP, ref CancerPPD/SATPdb
[6] = ACPs dataset D4 (sheet "D4"), label 1 = ACP, 0 = non-ACP, ref CancerPPD / SATPdb
[7] = ACPs dataset D5, sheet "D5", label 1 = ACP, 0 = non-ACP, ref CancerPPD [45] and SATPdb
[8] = ACPs dataset D1, label 1 = ACP, 0 = non-ACP (non-anticancer AMPs from SATPdb), ref CancerPPD/SATPdb
[9] = ACPs dataset D4 (sheet "D4"), label 1 = ACP, experimentally validated ACPs, ref CancerPPD [45] and SATPdb
[10] = ACPs dataset D5 (sheet "D5"), label 1 = ACP (positive set), sequences with CancerPPD/SATPdb ID, ref CancerPPD, SATPdb
[11] = ACPs dataset D3 (supplement sheet "D3"), 1 = ACP, 0 = non-ACP, ref CancerPPD [45] and SATPdb
[12] = ACPs dataset D2 (supplement ACPs(seguence).xlsx, sheet D2), dataset label 1/0 (ACP / non-ACP), entries identified by Swissprot(PDB ID), ref CancerPPD/SATPdb/Swissprot(PDB)

Row | Substance | Activity [1] | Activity [2] | Activity [3] | Activity [9] | Activity [10] | also measured
1 | RRWCFRVCYR GFCYRKCR [1RKK NMR - A 1-18] | 0 | 0 |  |  |  | 
2 | GFGCPGNQLKCNNHCKSISCRAGYCDAATLWLRCTCTDCNGKK [satpdb11046] |  |  | 0 |  |  | Activity [4]: 0
3 | FKIPPIVKDTLKKFFKGGIAGVMGQ [satpdb10550] |  |  | 0 |  |  | Activity [4]: 0
4 | LLKKLLKKLLKK [satpdb13272] |  |  |  |  |  | Activity [5]: 0; Activity [6]: 0; Activity [7]: 0
5 | GSSFLSPEHQLAQQRKESKKPPAKLQPR [satpdb13082] |  |  |  |  |  | Activity [8]: 0; Activity [6]: 0
6 | SPWDIASVTAGGVQKRS [satpdb27667] |  | 1 | 1 | 1 | 1 | 
7 | GLFDVIKKVASVIKKL [compound 4084] | 1 |  |  |  |  | Activity [11]: 1; Activity [4]: 1
8 | DKLIGSCVWGAVNYTSDCNGECKRRGYKGGHCGSFANVNCWCET [1I2U NMR - A 1-44] | 0 |  |  |  |  | Activity [12]: 0
9 | MEPECNLNCTD [satpdb10075] |  | 1 | 1 | 1 | 1 | 
10 | EECGPNEVFNTCGSACAPTCAQPKTRICTMQCRIGCQCQEGFLRNGEGACVLPENC [1CCV NMR - A 1-56] |  |  |  |  |  | Activity [12]: 0; Activity [7]: 0
11 | SYSMEHFRWGKPV [2IQP model - B 1-13] | 0 | 0 |  |  |  | 
12 | AKRHHGYKRKFH [compound 1423] |  |  |  | 1 | 1 | Activity [11]: 1
13 | GLFDIVKKVVGAIGSL [compound 4407] |  | 1 | 1 | 1 | 1 | 
14 | KNWKK-Aib-LKK-Aib-IK-Aib-VK [compound 3503] | 1 |  |  |  |  | Activity [11]: 1; Activity [4]: 1
15 | AWKKWAKAWKWAKAKWWAKAA [compound 4482] |  | 1 | 1 | 1 | 1 | 
16 | KWKSFlKTFKSlKKTVLHTLLKAISS [compound 3770] | 1 |  |  |  |  | Activity [11]: 1; Activity [4]: 1
17 | LGGIVSAVKKIVDFLG [compound 1903] | 1 |  |  |  |  | Activity [11]: 1; Activity [4]: 1
18 | TKPRKTKPRKTKPRKTKPR [compound 5055] |  | 1 | 1 | 1 | 1 | 
19 | GIPCGESCVYIPCLTSAIGCSCKSKVCYRN [satpdb13250] |  |  |  |  |  | Activity [8]: 0; Activity [6]: 0
20 | KAYSTPRCKYLFRAVLCWL [satpdb14444] |  |  |  |  |  | Activity [5]: 0; Activity [6]: 0; Activity [7]: 0

Row | Substance | Activity [1] | Activity [2] | Activity [3] | Activity [9] | Activity [10] | also measured
21 | CENTISGCSRADCLLTHRKQGCQKTCGLC [5WCV NMR - A 1-29] | 0 | 0 |  |  |  | 
22 | RICPRIWMECKRDSDCMAQCICVDGHCG [1F2S X-ray 1.79 I 1-28] | 0 | 0 |  |  |  | 
23 | KIKSCYYLPCFVTS [satpdb14785] |  | 1 | 1 | 1 | 1 | 
24 | WNPFKELERAGQRVRDAIISAAPAVATVGQAAAIARG [satpdb12131] |  |  |  |  |  | Activity [8]: 0; Activity [4]: 0
25 | FLPIVGRLISGLL [satpdb10939] |  |  |  |  |  | Activity [11]: 0; Activity [6]: 0; Activity [7]: 0
26 | ALWKTLLKKVLKAAAK [satpdb14616] |  |  |  |  |  | Activity [5]: 0; Activity [6]: 0; Activity [7]: 0
27 | QLGELIQQGGQKIVEKIQKIGQRIRDFFSNLRPRQEA [satpdb13050] |  |  |  |  |  | Activity [8]: 0; Activity [6]: 0
28 | VOLOfPVOLfP [satpdb12074] |  |  |  |  |  | Activity [5]: 0; Activity [6]: 0; Activity [7]: 0
29 | KWKLFKKIPKFLHLAKKF [compound 3290] |  | 1 | 1 | 1 | 1 | 
30 | GFGMALRLLRRVL [compound 3598] | 1 |  |  |  |  | Activity [11]: 1; Activity [4]: 1
31 | GKWMSLLKKILK [compound 3651] | 1 |  |  |  |  | Activity [11]: 1; Activity [4]: 1
32 | MELVKVVFMGWFKNESMFTKEITMMKDDVQWATTQYAEVNKALVKAFIDDKKVCEVDCRG [5HY3 X-ray 3.10,B,1-60] |  |  |  |  |  | Activity [12]: 0; Activity [7]: 0
33 | GGLRSLGRKILRAWKKYGPIIVPIIRIG [compound 4394] |  | 1 | 1 | 1 | 1 | 
34 | ALALLOHALHOLALLAOHLAHOLALA [satpdb14515] |  |  |  |  |  | Activity [5]: 0; Activity [6]: 0; Activity [7]: 0
35 | QCESGPCCRNCKFLKEGTICKRARGDDMDDYCNGKTCDCPRNPHKGPAT [1RO3 NMR - A 1-49] | 0 |  |  |  |  | Activity [12]: 0
36 | GSIPCEGSCVFIPCISAIIGCSCSNKVCYKN [compound 4379] |  | 1 | 1 | 1 | 1 | 
37 | GMWSKILGHLKR [compound 3637] | 1 |  |  |  |  | Activity [11]: 1; Activity [4]: 1
38 | ITMQGIQGQKIRMIMF [satpdb23309] |  | 1 | 1 | 1 | 1 | 
39 | IYSFDGRDIMTDPSWPQKVIWHGSSPHGVRLVDNYCEAWRTA [satpdb23000] |  | 1 | 1 | 1 | 1 | 
40 | GAIKDALKGAAKTVAVELLKKAQCKLEKTC [satpdb13113] |  |  |  |  |  | Activity [8]: 0; Activity [6]: 0

Row | Substance | Activity [1] | Activity [2] | Activity [3] | Activity [9] | Activity [10] | also measured
41 | IKLSPETKDNLKKVLKGAIKGAIAVAKMV [satpdb12617] |  |  |  |  |  | Activity [5]: 0; Activity [6]: 0; Activity [7]: 0
42 | KNWKAILKHIIK [satpdb13480] |  |  |  |  |  | Activity [5]: 0; Activity [6]: 0; Activity [7]: 0
43 | SILSTLKDVGISAIKNAGSGVLKTLLCKLNKNCEK [satpdb12439] |  |  |  |  |  | Activity [8]: 0; Activity [4]: 0
44 | ALSKALSKALSKALSKALSKALSK [compound 1357] |  |  |  | 1 | 1 | Activity [11]: 1
45 | KRRREKQRPCDKPRR [satpdb15198] |  | 1 | 1 | 1 | 1 | 
46 | GPWAPCSASCGGGSQSRS [satpdb28727] |  | 1 | 1 | 1 | 1 | 
47 | ETFADWWKLLAE [compound 5061] |  | 1 | 1 | 1 | 1 | 
48 | ALWKNMLKGIGKLAGQAALGAVKTLVGA [compound 1706] |  | 1 | 1 | 1 | 1 | 
49 | LPKWKVFKKIEKVGRNIRNGIVKAGPAIAVLGEAKALG [compound 4275] | 1 |  |  |  |  | Activity [11]: 1; Activity [4]: 1
50 | GIGKFLHAAKKFAKAFVAEIMNS [compound 1354] | 1 |  |  |  |  | Activity [11]: 1; Activity [4]: 1
51 | FAKKLAKLAKKLLAL [compound 1790] |  |  |  | 1 | 1 | Activity [11]: 1
52 | KAAKKAWKAWKKAAKAAWKKAA [compound 4477] |  | 1 | 1 | 1 | 1 | 
53 | GLKEIFKAGLGSLVKGIAAHVAS [satpdb14561] |  |  |  |  |  | Activity [6]: 0; Activity [7]: 0
54 | ILPWKWPWAPARR [satpdb12615] |  |  |  |  |  | Activity [5]: 0; Activity [6]: 0; Activity [7]: 0
55 | ALWKTLLKKVLKA [satpdb11986] |  |  |  |  |  | Activity [5]: 0
56 | KVNANAIKKGGKAIGKGFKVISAASTAHDVYEHIKNRRH [satpdb12894] |  |  |  |  |  | Activity [8]: 0; Activity [6]: 0
57 | MPQLVPFYFMNQLTYGFLLMITLLILFSQFFLPMILRLYVSRLFISKL [6B2Z electron microscopy 3.60,A/L,1-48] | 0 |  |  |  |  | Activity [12]: 0
58 | GLFDVIKAVASVIGGL [compound 4057] | 1 |  |  |  |  | Activity [11]: 1; Activity [4]: 1
59 | KWLRRVWRWWR [compound 1877] | 1 |  |  |  |  | Activity [11]: 1; Activity [4]: 1
60 | GLLPCAESCVYIPCLTTVIGCSCKSKVCYKN [compound 4423] |  | 1 | 1 | 1 | 1 | 
